Laboratory results reported in US12012410B2, “Substituted pyrazolo[1,5-a]pyrazines for spinal muscular atrophy” (REBORNA BIOSCIENCES, INC., priority 2018, dated 2024).

test system: FL-SMN mRNA (SMN transcript containing exons 7 and 8); assay: Live-cell assay to measure changes in FL-SMN mRNA levels (qPCR) after exposure to the compounds; format: cell-based, human; conditions: fibroblasts derived from patients SMA (GM03813); 24 hours incubation
Method: In this example, each test compound was administered to cultured cells, and changes in the expression levels of mRNA transcripts of SMN, i.e., FL-SMN containing exons 7 and 8 and Delta7 with exon 7 skipped, were examined using PCR.
Fibroblasts derived from patients SMA (GM03813) (Coriell Cell Repositories) were cultured with passages using DMEM (High Glucose) (Life Technologies) supplemented with 10% FBS (Life Technologies). Cells were seeded in tissue-culture-treated 96-well plates (Corning) at 1.5 or 0.5×10^4 cells/well in 100 μL of medium. The cells were incubated in 5% CO2 for 6 hours, and the medium was replaced with 100 μL of medium (with DMSO, 0.1% final concentration) containing each of the compounds given in the Examples. After additional incubation for 24 hours under the same conditions, the cells were washed once with D-PBS(—) (Wako) and 25 μL/well of the lysis solution (with gDNA Remove) contained in the SuperPrep (registered trademark) Cell Lysis & RT Kit for qPCR (Toyobo life science) was added according to the manufacturer's instructions so that the cells were lysed and the genomic DNA was degraded. Furthermore, 5 μL of the STOP solution (with RNase Inhibitor) contained in the kit was added to provide RNA-containing solutions. Six microliters of the RNA-containing solutions were each mixed with 14 μL of a reverse transcription solution containing transcriptase together with dNTP, random primers and an oligodT primer. Reverse transcription was performed at 37° C. (15 min), 50° C. (5 min), and 98° C. (5 min), to give total cDNAs. The total cDNAs were diluted 30-fold with Ultra-pure water (Invitrogen) to measure the expression levels of FL-SMN, delta7, and GAPDH. For quantitative PCR (qPCR), a PCR solution was prepared according to the instructions of the manufacturer of the THUNDERBIRD (registered trademark) Probe qPCR Mix (Toyobo life science). Five microliters of the diluted total cDNA solutions and oligo DNA standard solutions, each containing either 001-Standard FL-SMN (SEQ ID NO. 1) or 002-Standard delta7 (SEQ ID NO. 2), were each mixed with 10 μL of each of the PCR solutions containing a qPCR probe, primers, and PCR enzyme. […] The oligoDNA standard solutions were prepared as those containing either of 5×10^8, 5×10^7, 5×10^6, 5×10^5, 5×10^4, 5×10^3, 5×10^2, 5×10, 5, or 0 copies. For the oligo DNA standards, primers, and probes, oligonucleotides synthesized by Integrated DNA Technologies, Inc. (IDT) were used. […] FIGS. 3B and 3D show their detection mechanisms. The final concentrations of the primers and probes added were 0.4 μM and 0.15 μM, respectively. The qPCR was performed using the following conditions on a ViiA7 instrument (Applied Biosystems): first stage: 95° C. (1 min)→second stage: 95° C. (15 sec)→third stage: 60° C. (1 min)→40 repeated cycles of the second and third stages. The GAPDH mRNA was used as the internal control, and the commercially available 20×gene expression PCR assay (Life Technologies, 4326317E, Hs99999905_ml) and Standard GAPDH (SEQ ID NO. 7) (see FIG. 1) was used to determine the number of copies of this gene. The measurement values obtained for the samples to be measured were standardized against the respective value obtained for GAPDH.
Using the above-mentioned assays, the activities of the compounds of the Examples were evaluated. Specifically, the percentages of the FL-SMN and delta7 values obtained using DMSO without the compounds and standardized against GAPDH were set as 100% and those of the FL-SMN and delta7 values obtained at the time of administration of the compounds and standardized against GAPDH were calculated. […]

| Compound | Percentage of increase (FL-SMN mRNA standardized against GAPDH, DMSO control set as 100%) |
| --- | --- |
| Cc1nc2c(F)cc(-c3ccc4nc(C5CCN(C6CC6)CC5)[nH]c(=O)c4n3)cc2o1 [Example 106, 2-(1-cyclopropylpiperidin-4-yl)-6-(4-fluoro-2-methyl-1,3-benzoxazol-6-yl)pyrido[3,2-d]pyrimidin-4(3H)-one] | ** (equal to or higher than 120% but lower than 150%) |
| COc1cc(C2CCN(C)CC2)cc2c(=O)[nH]c(-c3cc4c(C)nc(C)cn4n3)nc12 [Example 52, 2-(4,6-dimethylpyrazolo[1,5-a]pyrazin-2-yl)-8-methoxy-6-(1-methylpiperidin-4-yl)quinazolin-4(3H)-one] | ** (equal to or higher than 120% but lower than 150%) |
| Cc1cn2cc(-c3cc(F)c4nc(C5(F)CCN(C(C)C)CC5)[nH]c(=O)c4c3)ccc2n1 [Example 96, 8-fluoro-2-(4-fluoro-1-isopropylpiperidin-4-yl)-6-(2-methylimidazo[1,2-a]pyridin-6-yl)quinazolin-4(3H)-one] | *** (equal to or higher than 150% but lower than 180%) |
| Cc1cn2cc(-c3ccc4nc(C5CCN(C)CC5)[nH]c(=O)c4c3)cc(F)c2n1 [Example 10, 6-(8-Fluoro-2-methylimidazo[1,2-α]pyridin-6-yl)-2-(1-methylpiperidin-4-yl)quinazolin-4(3H)-one] | **** (equal to or higher than 180%) |
| CCN1CCC(c2nc3ccc(-c4cc(F)c5nc(C)oc5c4)cc3c(=O)[nH]2)CC1 [Example 25, 2-(1-ethylpiperidin-4-yl)-6-(4-fluoro-2-methylu 1,3-benzoxazole-6-yl) kinazoline-4 (3H)-one] | **** (equal to or higher than 180%) |
| Cc1cn2cc(-c3nc4ccc(N5CCN(C)CC5)cc4c(=O)[nH]3)cc(C)c2n1 [Example 55, 2-(2,8-dimethylimidazo[1,2-a]pyridin-6-yl)-6-(4-methylpiperazin-1-yl)quinazolin-4(3H)-one] | ** (equal to or higher than 120% but lower than 150%) |
| Cc1cn2cc(-c3ccc4nc(C5CCN(C)CC5)[nH]c(=O)c4c3C)ccc2n1 [Example 60, 5-methyl-6-(2-methylimidazo[1,2-a]pyridin-6-yl)-2-(1-methylpiperidin-4-yl)quinazolin-4(3H)-one] | ** (equal to or higher than 120% but lower than 150%) |
| Cc1cn2cc(-c3nc4cc(F)c(N5CCN(C)CC5)cc4c(=O)[nH]3)cc(F)c2n1 [Example 56, 7-fluoro-2-(8-fluoro-2-methylimidazo[1,2-a]pyridin-6-yl)-6-(4-methylpiperazin-1-yl)quinazolin-4(3H)-one] | ** (equal to or higher than 120% but lower than 150%) |
| Cc1cn2nc(-c3nc4ccc(N5CCN(C)C[C@H]5C)cc4c(=O)[nH]3)cc2c(C)n1 [Example 128, (R)-6-(2,4-simethylpiperazin-1-yl)-2-(4,6-dimethylpyrazolo[1,5-a]pyrazin-2-yl)quinazolin-4(3H)-one] | **** (equal to or higher than 180%) |
| Cc1cn2cc(-c3ccc4nc(C5CCOCC5)[nH]c(=O)c4c3)ccc2n1 [Example 81, 6-(2-methylimidazo[1,2-a]pyridin-6-yl)-2-(tetrahydro-2H4-pyran-4-yl)quinazolin-4(3H)-one] | * (equal to or higher than 100% but lower than 120%) |
| COc1cc2nc(-c3cc4c(C)nc(C)cn4n3)[nH]c(=O)c2cc1C1CCN(C)CC1 [Example 51, 2-(4,6-dimethylpyrazolo[1,5-a]pyrazin-2-yl)-7-methoxy-6-(1-methylpiperidin-4-yl)quinazolin-4(3H)-one] | * (equal to or higher than 100% but lower than 120%) |
| Cc1cn2cc(-c3cc4c(=O)[nH]c(C5CCN(C6CC6)CC5)nc4cn3)cc(F)c2n1 [Example 114, 2-(1-cyclopropylpiperidin-4-yl)-6-(8-fluoro-2-methylimidazo[1,2-a]pyridin-6-yl)pyrido[3,4-d]pyrimidin-4(3H)-one] | **** (equal to or higher than 180%) |
| Cc1cn2cc(-c3cc(C)c4nc(C5(F)CCN(C(C)C)CC5)[nH]c(=O)c4n3)cc(F)c2n1 [Example 101, 2-(4-fluoro-1-isopropylpiperidin-4-yl)-6-(8-fluoro-2-methylimidazo[1,2-a]pyridin-6-yl)-8-methylpyrido[3,2-d]pyrimidin-4(3H)-one] | *** (equal to or higher than 150% but lower than 180%) |
| Cc1cn2cc(-c3cc(C)c4nc(C5CCN(C6CC6)CC5)[nH]c(=O)c4c3)cc(F)c2n1 [Example 40, 2-(1-cyclopropylpiperidin-4-yl)-6-(8-fluoro-2-methylimidazo[1,2-a]pyridin-6-yl)-8-methylquinazolin-4(3H)-one] | **** (equal to or higher than 180%) |
| Cc1cn2cc(-c3ccc4nc(C5CCN(C6CC6)CC5)[nH]c(=O)c4c3)ccc2n1 [Example 74, 2-(1-cyclopropylpiperidin-4-yl)-6-(2-methylimidazo[1,2-a]pyridin-6-yl)quinazolin-4(3H)-one] | ** (equal to or higher than 120% but lower than 150%) |
| Cc1cn2cc(-c3ccc4nc(C5CCN(C)CC5)[nH]c(=O)c4c3)ccc2n1 [Example 9, 6-(2-Methylimidazo[1,2-α]pyridin-6-yl)-2-(1-methylpiperidin-4-yl)quinazolin-4(3H)-one] | **** (equal to or higher than 180%) |
| Cc1cn2nc(-c3nc4ccc(N5CCN(CC6CC6)CC5)cc4c(=O)[nH]3)cc2c(C)n1 [Example 120, 6-[4-(cyclopropyImethyl)piperazin-1-yl]-2-(4,6-dimethylpyrazolo[1,5-a]pyrazin-2-yl)quinazolin-4(3H)-one bistrifluoroacetate] | **** (equal to or higher than 180%) |
| Cc1cn2cc(-c3cc4c(=O)[nH]c(C5(F)CCN(C)CC5)nc4cn3)cc(F)c2n1 [Example 108, 2-(4-fluoro-1-methylpiperidin-4-yl)-6-(8-fluoro-2-methylimidazo[1,2-a]pyridin-6-yl)pyrido[3,4-d]pyrimidin-4(3H)-one] | ** (equal to or higher than 120% but lower than 150%) |
| Cc1cn2nc(-c3nc4ccc(N5CCN6CCCCC6C5)cc4c(=O)[nH]3)cc2c(C)n1 (centres unmarked) [Example 124, 2-(4,6-dimethylpyrazolo[1,5-a]pyrazin-2-yl)-6-(octahydro-2H-pyrido[1,2-a]pyrazin-2-yl)quinazolin-4(3H)-one] | *** (equal to or higher than 150% but lower than 180%) |
| Cc1cn2cc(-c3ccc4nc(C5CCN(C)CC5)[nH]c(=O)c4c3)c(C)cc2n1 [Example 63, 6-(2,7-dimethylimidazo[1,2-a]pyridin-6-yl)-2-(1-methylpiperidin-4-yl)quinazolin-4(3H)-one] | * (equal to or higher than 100% but lower than 120%) |
